In data set [1] the target is T1, Aβ(1-40) (Homo sapiens, UniProt P05067).
T1 construct: Soluble Aβ(1-40) peptide (Bachem, Torrance, Calif.); purchased Bachem, Torrance, Calif
As to the kind of experiment: BASSR (Beta-Amyloid Self-Seeding Radioassay), inhibitors of self-seeded amyloid fibril growth. The format is biochemical. The conditions noted are these: 30 μM soluble Aβ(1-40), 125I-labeled Aβ(1-40), 37° C. 3 to 5 hours; replicate values; ppt = precipitate formed at the indicated concentration. As for the experimental part:
1. BASSR (Beta-Amyloid Self-Seeding Radioassay)
(§1) An assay for inhibitors of self-seeded amyloid fibril growth
(§2) Assay Buffer—50 mM sodium phosphate, pH 7.5, 100 mM NaCl, 0.02% NaN3, 1 M urea (filter and store at 4° C.)
Soluble Aβ(1-40) peptide (Bachem, Torrance, Calif.)—2.2 mg/mL in […] deionized H2O (is stored in aliquots at −20° C.; is kept on ice when thawed) will self-seed after 1 week storage. Typically, the solution is stored until no lag phase is seen in the assay.
^125I-labeled Aβ(1-40)—150K to 350K cpm/μL in 100% acetonitrile−0.1% trifluoroacetic acid (TFA)—1% β-mercaptoethanol (aliquots stored at −20° C). ^125I-labeled Aβ(1-40) is made in accordance with the procedure set forth by LeVine H., III, in Neurobiol. Aging, 1995;16:755, which is hereby incorporated by reference, or this reagent may be purchased from Amersham, Arlington Heights, Ill.
Final assay conditions: 30 μM soluble Aβ(1-40) in deionized water in assay buffer+20K to 50K cpm ^125I-labeled Aβ (1-40) per assay. Compound to be tested is dissolved in dimethylsulfoxide (DMSO), typically 5 to 50 mM stock, such that the final concentration of DMSO is<1% v/v in the assay.
Assay: Reaction mixture for 50 assays (on ice) is comprised of 0.1 to 0.2 μL of ^125I-labeled A^125I-labeled Aβ(1-40)+1 μL of soluble Aβ(1-40)+13.5 μL assay buffer per assay. The following are the amounts of the components of the reaction mixture sufficient for 50 assay wells.
1) The reaction mixture of above is prepared by mixing components and storing on ice.
b 2) 14.5 μL of the reaction mixture is pipetted into each of 50 wells on a polypropylene U-bottom 96-well microtiter plate on ice (Costar 3794).
(§3) 3) 1.7 μL of diluted compound to be tested is added to each well in a column of eight, including solvent control. Serial 3-fold dilutions from 1 mM (100 μM final) in assay buffer−urea=7 dilutions+zero. Each 96-well plate can therefore accommodate 11 samples+1 Congo Red control (0.039-5 μM final in 2-fold steps).
4) The plate with aluminum film (Beckman 538619) is sealed and incubated for 10 minutes on ice.
(§4) 5) The temperature is raised to 37° C. and incubated for 3 to 5 hours (depending on the lot of the peptide).
6) The aluminum film is removed and 200 μL/well of ice cold assay buffer with urea is added. The radiolabeled fibrils are collected by vacuum filtration through 0.2 μm pore size GVWP filters in 96-well plates (Millipore MAGV N22, Bedford, Mass.). The radioactivity of the filters is determined by using standard methods well-known to those skilled in the art.

The target of data set [2] is T1, Aβ(1-40). Put plainly: BASST (Beta-Amyloid Self-seeding, Thioflavin T), inhibitors of self-seeded amyloid fibril growth. The format is biochemical. The conditions noted are these: 30 μM soluble Aβ(1-40), 37° C. 3 to 5 hours, thioflavin T fluorescence; replicate values. How it is done: 2. BASST (Beta-Amyloid Self-seeding, Thioflavin T)
as §1, §2
Soluble Aβ(1-40)—2.2 mg/mL in deionized H2O (is stored in aliquots at −20° C.; is kept on ice when thawed) will self-seed after 1 week storage. Typically, the solution is stored until no lag phase is seen in the assay.
Final assay conditions: 30 μM soluble Aβ(1-40) in deionized water in assay buffer. Compound to be tested is dissolved in DMSO, typically 5 to 50 mM stock, such that the final concentration of DMSO is<1% v/v in the assay.
Assay: Reaction mixture for 50 assays (on ice) is comprised of 1 μL of soluble Aβ(1-40)+13.5 μL assay buffer per assay. The following are the amounts of the components of the reaction mixture that result in each of the 50 assay wells.
1) The reaction mix above is prepared by mixing the components and storing on ice.
2) 14.5 μL of reaction mixture is pipetted into each of 50 wells of a polystyrene U-bottom, 96-well microtiter plate (Corning 25881-96) on ice.
as §3
4) The plate with aluminum film is sealed and incubated for 10 minutes on ice.
as §4
6) The aluminum film is removed and 250 μL/well of 5 μM thioflavin T (ThT) [T-3516, Sigma-Aldrich] is added in 50 mM glycine-NaOH, pH 8.5. Fluorescence is read on a plate reader (ex=440 nm/20 nm; em=485 nm/20 nm) within 5 minutes.

Another data set addresses T2, Aβ(1-40) peptide (Homo sapiens, UniProt P05067).
T2 construct: 10 μL 0.5 mg/mL Aβ(1-40) peptide in 20% HFIP
As to the kind of experiment: BAPA (Beta-Amyloid Peptide Aggregation), pH 6.0, filtration endpoint. The format is biochemical. How it is done:
3. BAPA (Beta-Amyloid Peptide Aggregation)
This assay is used to provide a measure of inhibition by a compound against the aggregation behavior of the beta amyloid peptide.
The purpose of this assay is to provide a higher volume method of assaying the amount of beta amyloid aggregation using an endpoint assay based on filtration. In this assay, hexafluoroisopropanol (HFIP) is used to break down the initial amyloid peptide to a monomer state and a concentration of 33 μM is used, a concentration which is high enough so that aggregation will occur at pH 6.0 in several hours.
β-Amyloid Peptide Aggregation, pH 6.0 (BAPA)
To a 96-well plate (Costar 3794) is added 25 μL 50 mM Phosphate Buffer (pH 6.0), 10 μL 0.5 mg/mL Aβ(1-40) peptide in 20% HFIP+0.1 μL/assay radioiodinated ^125I Aβ(1-40) [^125I Aβ(1-40)], and 1 μL of the compound to be tested, starting at […] with a concentration of DMSO<1%. The reaction is incubated for 2 to 4 hours at room temperature. The reaction is stopped with 200 μL of 50 mM phosphate buffer, pH 6.0, and filtered through a 0.2 μm 96-well filter plate (Millipore MAGU N22). The filter plate is washed with 100 μL of the same phosphate buffer. Aggregation is detected on a Microbeta counter after impregnating the filters with Meltilex (1450-441) and is corrected for background.

The next data set deals with T3, Aβ(1-42) (Homo sapiens, UniProt P05067).
T3 construct: Required Aβ(1-42) (California Peptide) is dried from its hexafluoroisopropanol (HFIP) stock solution; purchased California Peptide
Put plainly: BATYM assay, Aβ(1-42) aggregation by Thioflavin T fluorescence. The format is biochemical. Particulars: Aβ1-42 final concentration 100 μM, 37° C. 1 day, ThT fluorescence; (P)/(Q) marks undefined. How it is done:
Required Aβ(1-42) (California Peptide) is dried from its hexafluoroisopropanol (HFIP) stock solution. The Aβ(1-42) is dissolved in DMSO and then mixed with phosphate buffered saline (PBS) (pH 7.4). The mixed Aβ(1-42) solution is filtered with a GVWP 0.22 μm syringe filter (Millipore, Bedford, Mass.). The compound to be tested in DMSO (50 times concentrate) is put into each well (0.5 μL/well) of a 96-well plate. The Aβ(1-42) solution is added into each well (25 μL/well). The plate is centrifuged at 1000 g for 5 minutes and incubated at 37° C. for 1 day (Aβ1-42; final concentration 100 μM).
After incubation Thioflavin T (ThT) (30 μM) solution in glycine-NaOH buffer (pH 8.5, 50 mM) is added into each well (250 μL/well), fluorescence is measured (ex=440/20 nm, em=485/20 nm) using a fluorescence plate reader. The inhibitory activity is calculated as the reduction of fluorescence with the following formula:
Inhibition (%)={(F(Aβ)−F(Aβ+compound)}/{F(Aβ)−F(solvent−compound)}×100.
The IC50s are calculated by a curve-fitting program using the equation given below. The data is obtained from two different experiments in triplicate.
x=concentration of tested compound (M),

[3] abbreviates: 33 μM Aβ(1-40), pH 6.0, 2 to 4 hours at room temperature, (Q) mark undefined, read-out: BAPA (IC50 = μM).
Setting [4] is: marked (BAPA2), variant not described, read-out: BAPA (IC50 = μM), value marked (BAPA2).

“And” between values parts separate entries of the source, which are not always exact repeats. Equal values may be shown once. Read-outs that look alike come from different tables or passages of the source.

From patent publication US20020143012A1, “Phenoxazine analogs useful as amyloid aggregation inhibitors and treatment of alzheimer's disease and disorders related to amyloidosis” (priority 2000, published 2002) come the findings set out here.

Broadly, the IC50 is the point on the concentration scale where inhibition reaches its midpoint. As usually defined, the melting point is the temperature of the solid-liquid transition.

T2 sequence (P05067 672-711): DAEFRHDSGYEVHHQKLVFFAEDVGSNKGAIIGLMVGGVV
T1 sequence (P05067 672-711): as above
T3 sequence (P05067 672-713): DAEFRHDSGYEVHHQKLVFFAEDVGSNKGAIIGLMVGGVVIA

Regarding `O=C(O)c1cc([N+](=O)[O-])cc2c1Nc1ccc(CCc3ccc(Cl)c(Cl)c3)cc1O2` [Compound 5, 7-[2-(3,4-dichlorophenyl)ethyl]-3-nitrophenoxazinecarboxylic acid], the melting point is more than 250 °C. In addition, at Aβ(1-40) [1], the IC50 is 60 µM and > 100 µM. The IC50 against Aβ(1-40) [2] was 3 µM and 1 µM. For the same molecule, at Aβ(1-40) peptide (setting [3]), the IC50 was found to be 0.9 µM. In addition, the IC50 against Aβ(1-42) was 7.89 µM and 3.02 µM.
`O=C(O)c1cc([N+](=O)[O-])cc2c1Nc1cc(-c3ccccc3)ccc1O2` [Compound 2, 3-nitro-8-phenylphenoxazinecarboxylic acid]: the IC50 against Aβ(1-40) [1] was 60 µM (2×) and 70 µM; against Aβ(1-40) [2], 1 µM; at Aβ(1-40) peptide (setting [3]), 5 µM; at Aβ(1-42) it was 4.15 µM.
Take `O=C(/C=C/c1ccc2c(c1)Oc1cc([N+](=O)[O-])cc(C(=O)O)c1N2)c1ccc(Cl)c(Cl)c1` [Compound 6, 7-[3-(3,4-Dichlorophenyl)-3-oxoprop-1-enyl]-3-nitrophenoxazinecarboxylic acid]: the melting point was more than 200 °C. In addition, the concentration for half-maximal inhibition (IC50) on Aβ(1-40) [1] is 21 µM and 22 µM and 25 µM. In addition, it took 1 µM to reach half-maximal inhibition on Aβ(1-40) [2] (IC50). Moreover, on Aβ(1-40) peptide (setting [3]), the IC50 is more than 100 µM. Moreover, the IC50 on Aβ(1-42) came to 4.61 µM.
With “3-Nitrophenoxazinecarboxylic acid [Compound 3]”, the IC50 against Aβ(1-40) [1] was 8 µM; against Aβ(1-40) [2], 13 µM (2×) and 40 µM (2×) and 23 µM (2×); at Aβ(1-40) peptide (setting [3]), 62 µM; at Aβ(1-40) peptide (setting [4]), more than 100 µM.
In turn, `Nc1cc2c(c(C(=O)O)c1)Nc1ccc(CCCc3ccc(Cl)c(Cl)c3)cc1O2` [Compound 9, 3-Amino-7-[3-(3,4-dichlorophenyl)propyl]phenoxazine carboxylic acid] had a melting point of 213 to 216 °C. Further, the IC50 against Aβ(1-40) [1] was 60 µM and > 100 µM. The same molecule returned an IC50 against Aβ(1-40) [2] of 3 µM. The IC50 on Aβ(1-40) peptide (setting [3]) is 86 µM. The molecule also gave an IC50 against Aβ(1-42) of 8.75 µM.
For `O=C(O)c1cc([N+](=O)[O-])cc2c1Nc1ccc(CCCc3ccc(Cl)c(Cl)c3)cc1O2` [Compound 7, 7-[3-(3,4-Dichlorophenyl)propyl]-3-nitrophenoxazine carboxylic acid], the IC50 was 30 µM and 20 µM and 6 µM at Aβ(1-40) [1]; 0.5 µM at Aβ(1-40) [2]; more than 100 µM on Aβ(1-40) peptide (setting [3]); 1.88 µM at Aβ(1-42).
Turning to `O=C(O)c1cc(OCc2ccccc2)cc2c1Nc1ccccc1O2` [Compound 4, 3-(Phenylmethoxy)phenoxazinecarboxylic acid], the IC50 is 14 µM against Aβ(1-40) [1]; 8.4 µM and 45 µM (2×) and 8.44 µM on Aβ(1-40) [2]; more than 50 µM on Aβ(1-40) peptide (setting [4]).
Turning to `O=C(O)c1cc([N+](=O)[O-])cc2c1Nc1ccc(CCC(O)c3ccc(Cl)c(Cl)c3)cc1O2` (stereo not shown) [Compound 8, 7-[3-(3,4-Dichlorophenyl)-3-hydroxypropyl]-3-nitrophenoxazine carboxylic acid], the melting point was 218 to 220 °C. Besides, the IC50 on Aβ(1-40) [1] is > 100 µM and 100 µM (2×). On Aβ(1-40) [2], this molecule yielded an IC50 of 0.6 µM. For the same molecule, the IC50 at Aβ(1-40) peptide (setting [3]) is 100 µM. This molecule also gave an IC50 at Aβ(1-42) of 4.18 µM.
`O=C(O)c1cc([N+](=O)[O-])cc2c1Nc1cc3ccccc3cc1O2` [Compound 21, 3-nitrobenzo[b]phenoxazinecarboxylic acid]: the melting point is more than 230 °C. For the same molecule, the IC50 against Aβ(1-40) [1] was 12 µM and 11 µM and 10 µM. The molecule further registered an IC50 on Aβ(1-40) [2] of 1 µM. Further, the IC50 on Aβ(1-40) peptide (setting [3]) was 67 µM. At Aβ(1-42), the IC50 stood at 6.7 µM.
